Reference: patent US12114661B2, “Synergistically effective herbicide composition comprising metobromuron and clomazone” (BELCHIM CROP PROTECTION NV, priority 2018, dated 2024)

Legend:
Convolvolus arvensis [1] = assay: Example 4 field trial, herbicidal effect, ready-to-use formulation; type: in vivo; details: 44 DAA
[2] = system: Chenopodium album (CHEAL); assay: Example 2 field trial, herbicidal effect, tank mixture; type: in vivo; details: 42-56 DAA
Hibiscus trionum = assay: Example 1 field trial, herbicidal effect, tank mixture; type: in vivo; details: 28 DAA
Veronica persica = assay: Example 4 field trial, herbicidal effect, ready-to-use formulation; type: in vivo; details: 55 DAA
Merculiaris annua [3] = assay: Example 5 field trial, herbicidal effect, ready-to-use formulation; type: in vivo; details: 41 DAA
Amaranthus retroflexus [4] = assay: as above; type: in vivo; details: 25 DAA
Urtica urens = assay: Example 4 field trial, herbicidal effect, ready-to-use formulation; type: in vivo; details: 22 DAA
Chenopodium album = assay: Example 5 field trial, herbicidal effect, ready-to-use formulation; type: in vivo; details: 41 DAA
Setaria viridis = assay: Example 1 field trial, herbicidal effect, tank mixture; type: in vivo; details: 28 DAA
Polygonum aviculare = assay: Example 5 field trial, herbicidal effect, ready-to-use formulation; type: in vivo; details: 38 DAA
Echinochloa crus galli = assay: Example 4 field trial, herbicidal effect, ready-to-use formulation; type: in vivo; details: 35 DAA
Solanum nigrum [5] = assay: as above; type: in vivo; details: 35 DAA
Persicaria maculosa = assay: as above; type: in vivo; details: 35 DAA
Merculiaris annua [6] = assay: Example 6 field trial, herbicidal effect, ready-to-use formulation; type: in vivo; details: 18 DAA
Galium aparine = assay: Example 5 field trial, herbicidal effect, ready-to-use formulation; type: in vivo; details: 25 DAA
Solanum physalifolium = assay: as above; type: in vivo; details: 38 DAA
Convolvolus arvensis [7] = assay: Example 1 field trial, herbicidal effect, tank mixture; type: in vivo; details: 28 DAA
Senecio vulgaris (SENVU) = assay: Example 2 field trial, herbicidal effect, tank mixture; type: in vivo; details: 42-56 DAA
Echinochloa = assay: Example 1 field trial, herbicidal effect, tank mixture; type: in vivo; details: 29 DAA
[8] = system: Persicaria laphatipholium; assay: Example 6 field trial, herbicidal effect, ready-to-use formulation; type: in vivo; details: 25 DAA
Amaranthus retroflexus [9] = assay: as above; type: in vivo; details: 18 DAA
Cypurus = assay: Example 4 field trial, herbicidal effect, ready-to-use formulation; type: in vivo; details: 35 DAA
Veronica sp. (VERSS) = assay: Example 3 field trial, herbicidal effect, tank mixture; type: in vivo; details: 42-56 DAA
[10] = system: Merculiaris annua (MERAN); assay: as above; type: in vivo; details: 42-56 DAA
Solanum nigrum [11] = assay: Example 6 field trial, herbicidal effect, ready-to-use formulation; type: in vivo; details: 18 DAA
Panonicum ulmi = assay: as above; type: in vivo; details: CLZ 72 g a.c./ha; 42 DAA
[12] = system: Chenopodium album (CHEAL); assay: Example 3 field trial, herbicidal effect, tank mixture; type: in vivo; details: 42-56 DAA
Amaranthus retroflexus [13] = assay: Example 1 field trial, herbicidal effect, tank mixture; type: in vivo; details: 49 DAA
Persicaria maculate = assay: Example 5 field trial, herbicidal effect, ready-to-use formulation; type: in vivo; details: 28 DAA
[14] = Example 6 field trial, herbicidal effect, ready-to-use formulation; type: in vivo, Panonicum ulmi; details: MTB 1200 g a.c./ha; 42 DAA

CC1(C)CON(Cc2ccccc2Cl)C1=O [CLZ, 2-(2-chlorophenyl)methyl-4,4-dimethyl-3-isoxazolidinone]
h.e. (herbicidal effect) (Convolvolus arvensis [1]; CLZ 36 g a.c./ha): 30%
CLZ h.e. ([2]; CLZ 45 g a.c./ha): 6%
CLZ h.e. ([2]; CLZ 67.5 g a.c./ha): 43%
CLZ h.e. ([2]; CLZ 90 g a.c./ha): 53%
h.e. (herbicidal effect) (Hibiscus trionum; CLZ 72 g a.c./ha): 79%
h.e. (herbicidal effect) (Veronica persica; CLZ 36 g a.c./ha): 0%
h.e. (herbicidal effect) (Merculiaris annua [3]; CLZ 90 g a.c./ha): 50%
h.e. (herbicidal effect) (Amaranthus retroflexus [4]; CLZ 90 g a.c./ha): 10%
h.e. (herbicidal effect) (Urtica urens; CLZ 36 g a.c./ha): 0%
h.e. (herbicidal effect) (Chenopodium album; CLZ 90 g a.c./ha): 28%
h.e. (herbicidal effect) (Setaria viridis; CLZ 72 g a.c./ha): 86%
h.e. (herbicidal effect) (Polygonum aviculare; CLZ 90 g a.c./ha): 78%
h.e. (herbicidal effect) (Echinochloa crus galli; CLZ 36 g a.c./ha): 63%
h.e. (herbicidal effect) (Solanum nigrum [5]; CLZ 36 g a.c./ha): 52%
h.e. (herbicidal effect) (Persicaria maculosa; CLZ 36 g a.c./ha): 28%
h.e. (herbicidal effect) (Merculiaris annua [6]; CLZ 72 g a.c./ha): 60%
h.e. (herbicidal effect) (Galium aparine; CLZ 90 g a.c./ha): 33%
h.e. (herbicidal effect) (Solanum physalifolium; CLZ 90 g a.c./ha): 61%
h.e. (herbicidal effect) (Convolvolus arvensis [7]; CLZ 72 g a.c./ha): 46%
CLZ h.e. (Senecio vulgaris (SENVU); CLZ 45 g a.c./ha): 5%
CLZ h.e. (Senecio vulgaris (SENVU); CLZ 67.5 g a.c./ha): 40%
CLZ h.e. (Senecio vulgaris (SENVU); CLZ 90 g a.c./ha): 39%
h.e. (herbicidal effect) (Echinochloa; CLZ 72 g a.c./ha): 57%
h.e. (herbicidal effect) ([8]; CLZ 72 g a.c./ha): 34%
h.e. (herbicidal effect) (Amaranthus retroflexus [9]; CLZ 72 g a.c./ha): 77%
h.e. (herbicidal effect) (Cypurus; CLZ 36 g a.c./ha): 67%
CLZ h.e. (Veronica sp. (VERSS); CLZ 54 g a.c./ha): 43.3%
CLZ h.e. (Veronica sp. (VERSS); CLZ 72 g a.c./ha): 60%
CLZ h.e. (Veronica sp. (VERSS); CLZ 90 g a.c./ha): 16.7%
CLZ h.e. ([10]; CLZ 54 g a.c./ha): 43.3%
CLZ h.e. ([10]; CLZ 72 g a.c./ha): 50%
CLZ h.e. ([10]; CLZ 90 g a.c./ha): 23.3%
h.e. (herbicidal effect) (Solanum nigrum [11]; CLZ 72 g a.c./ha): 66%
h.e. (herbicidal effect) (Panonicum ulmi): 0%
CLZ h.e. ([12]; CLZ 54 g a.c./ha): 46.7%
CLZ h.e. ([12]; CLZ 72 g a.c./ha): 56.7%
CLZ h.e. ([12]; CLZ 90 g a.c./ha): 63.3%
h.e. (herbicidal effect) (Amaranthus retroflexus [13]; CLZ 72 g a.c./ha): 10%
h.e. (herbicidal effect) (Persicaria maculate; CLZ 90 g a.c./ha): 80%

CON(C)C(=O)Nc1ccc(Br)cc1 [MTB, 3-(4-bromophenyl)-1-methoxy-1-methylurea]
h.e. (herbicidal effect) (Convolvolus arvensis [1]; MTB 400 g a.c./ha): 18%
MTB h.e. ([2]; MTB 500 g a.c./ha): 61%
MTB h.e. ([2]; MTB 1000 g a.c./ha): 69%
MTB h.e. ([2]; MTB 1500 g a.c./ha): 79%
h.e. (herbicidal effect) (Hibiscus trionum; MTB 1200 g a.c./ha): 81%
h.e. (herbicidal effect) (Veronica persica; MTB 400 g a.c./ha): 25%
h.e. (herbicidal effect) (Merculiaris annua [3]; MTB 1000 g a.c./ha): 49%
h.e. (herbicidal effect) (Amaranthus retroflexus [4]; MTB 1000 g a.c./ha): 70%
h.e. (herbicidal effect) (Urtica urens; MTB 400 g a.c./ha): 37%
h.e. (herbicidal effect) (Chenopodium album; MTB 1000 g a.c./ha): 75%
h.e. (herbicidal effect) (Setaria viridis; MTB 1200 g a.c./ha): 72%
h.e. (herbicidal effect) (Polygonum aviculare; MTB 1000 g a.c./ha): 66%
h.e. (herbicidal effect) (Echinochloa crus galli; MTB 400 g a.c./ha): 68%
h.e. (herbicidal effect) (Solanum nigrum [5]; MTB 400 g a.c./ha): 76%
h.e. (herbicidal effect) (Persicaria maculosa; MTB 400 g a.c./ha): 79%
h.e. (herbicidal effect) (Merculiaris annua [6]; MTB 1200 g a.c./ha): 40%
h.e. (herbicidal effect) (Galium aparine; MTB 1000 g a.c./ha): 28%
h.e. (herbicidal effect) (Solanum physalifolium; MTB 1000 g a.c./ha): 65%
h.e. (herbicidal effect) (Convolvolus arvensis [7]; MTB 1200 g a.c./ha): 83%
MTB h.e. (Senecio vulgaris (SENVU); MTB 500 g a.c./ha): 18%
MTB h.e. (Senecio vulgaris (SENVU); MTB 1000 g a.c./ha): 34%
MTB h.e. (Senecio vulgaris (SENVU); MTB 1500 g a.c./ha): 35%
h.e. (herbicidal effect) (Echinochloa; MTB 1200 g a.c./ha): 35%
h.e. (herbicidal effect) ([8]; MTB 1200 g a.c./ha): 21%
h.e. (herbicidal effect) (Amaranthus retroflexus [9]; MTB 1200 g a.c./ha): 43%
h.e. (herbicidal effect) (Cypurus; MTB 400 g a.c./ha): 50%
MTB h.e. (Veronica sp. (VERSS); MTB 600 g a.c./ha): 20%
MTB h.e. (Veronica sp. (VERSS); MTB 1200 g a.c./ha): 35%
MTB h.e. (Veronica sp. (VERSS); MTB 1800 g a.c./ha): 97%
MTB h.e. ([10]; MTB 600 g a.c./ha): 10%
MTB h.e. ([10]; MTB 1200 g a.c./ha): 78.3%
MTB h.e. ([10]; MTB 1800 g a.c./ha): 91%
h.e. (herbicidal effect) (Solanum nigrum [11]; MTB 1200 g a.c./ha): 31%
h.e. (herbicidal effect) [14]: 89%
MTB h.e. ([12]; MTB 600 g a.c./ha): 69.3%
MTB h.e. ([12]; MTB 1200 g a.c./ha): 93%
MTB h.e. ([12]; MTB 1800 g a.c./ha): 98.3%
h.e. (herbicidal effect) (Amaranthus retroflexus [13]; MTB 1200 g a.c./ha): 50%
h.e. (herbicidal effect) (Persicaria maculate; MTB 1000 g a.c./ha): 43%
